Four molecules from US7612057B2, “Supramolecular complexes as photoactivated DNA cleavage agents” (Virginia Tech Intellectual Properties, Inc., priority 2002, dated 2009) can be followed below.

Series [1] deals with pUC18 plasmid. Nature of the series: Photocleavage of pUC18 plasmid DNA assayed by agarose gel electrophoresis. The format is biochemical. As to the method:
FIG. 10A-C. (a) Schematic representations of imaged agarose gel showing the photocleavage of pUC18 plasmid by [{(bpy)2Ru(dpp)}2RhCl2]^5+ in the absence of molecular oxygen. Lane 1 λ molecular weight standard, lanes 2 and 3 plasmid controls, lanes 4 and 6 plasmid incubated at 37° C. (2 h) in the presence of [(bpy)2Ru(dpp)]^2+ and [{(bpy)2Ru(dpp)}2RhCl2]^5+, respectively (1:5metal complex/base pair), lanes 5 and 7 plasmid irradiated at λ≧475 nm for 10 min in the presence of [(bpy)2Ru(dpp)]^2+ and [{(bpY)2Ru(dpp)}2RhCl2]^5+, respectively. (b) Lanes 1 and 2 plasmid controls, lanes 3 and 5 plasmid incubated at 37° C. (3 h) in the presence of [{(bpy)2Ru(bpm)}2RhCl2]^5+ and [{(bpy)2Ru(dpp)}2IrCl2]^5+, respectively, lanes 4 and 6 plasmid irradiated at λ≧475 nm for 10 min in the presence of [{(bpy)2Ru(bpm)}2RhCl2]^5+ and [{(bpy)2Ru(dpp)}2IrCl2]^5+, respectively. (c) Imaged agarose gel showing photocleavage of pBluescript plasmid in the absence of molecular oxygen by [(bpy)2Ru(dpp)RhCl2(dpp)Ru(bpy)2](PF6)5. Lane 1 is the λ molecular weight standard, lane 2 is the control linearized DNA (cut with HindIII) with no metal present, lane 3 is the control circular DNA with no metal present, lane 4 is a 1:5 metal complex/base pair mixture of the plasmid with the metal complex incubated at 37° C. (4 h), and lane 5 is a 1:5 metal complex/base pair mixture of the plasmid with the metal complex photolyzed at 520±5 nm for 4 h. All gels used 0.8% agarose, 90 mM Tris, and 90 mM boric acid buffer (pH=8.2, ionic strength=0.0043 M calculated using the Henderson-Hasselbalch equation).
A, DNA Photocleavage of pUC18 using [{(bpy)2Os(dpp)}2RhCl2](PF6)5:Lane 1 is the λ molecular weight standard, Lane 2 is a plasmid control, Lane 3 is a 1:5 metal complex/base pair mixture of the plasmid with the metal complex incubated at 37° C. for 20 minutes, Lane 4 is a 1:5 metal complex/base pair mixture of the plasmid with the metal complex photolyzed at >475 nm for 20 minutes.
C, DNA Photocleavage of pUC18 using [{(tpy)RuCl(bpm)}2RhCl2](PF6)3:Lane 1 is the λ molecular weight standard, Lane 2 is a plasmid control, Lane 3 is the plasmid alone photolyzed λ>475 nm for 15 mins, Lane 4 is a 1:5 metal complex/base pair mixture of the plasmid with the metal complex incubated at 37° C. for 15 minutes, Lane 5 is a 1:5 metal complex/base pair mixture of the plasmid with the metal complex photolyzed at >475 nm for 15 minutes.
pUC18 and pBluescript were used to probe pbotocleavage of DNA by gel electrophoresis.^14,26,41,42 pUC18 plasmid is 2686 bp (Bayou Biolabs). Irradiation used a 1000 W xenon arc lamp, a water IR filter, and a 475 nm cut off filter. Solutions were 3.5 μM in metal complex and 6.9 mM in phosphate buffer (pH=7) and allowed for ionic association of the cationic metal complexes with DNA. Dexoygenation was accomplished by bubbling with Ar for 30 min prior to the photolysis of the samples in an airtight cell blanketed with Ar.
The photocleavage of DNA by [{(bpy)2Ru(dpp)}2RhCl2]^5+ but not the monometallic ruthenium synthon illustrates the role of the supramolecular architecture, including Rh, on the desired photoreactivity. The cleavage product migrates slightly slower through the gel than native nicked plasmid, and similar results have been observed by Turro.^14 […]

Series [2] concerns pBluescript plasmid. Nature of the series: Photocleavage of pBluescript plasmid DNA assayed by agarose gel electrophoresis. The format is biochemical. The procedure:
FIG. 10A-C. […] Lane 1 λ molecular weight standard, lanes 2 and 3 plasmid controls, lanes 4 and 6 plasmid incubated at 37° C. […] (b) Lanes 1 and 2 plasmid controls, lanes 3 and 5 plasmid incubated at 37° C. […] Lane 1 is the λ molecular weight standard, lane 2 is the control linearized DNA (cut with HindIII) with no metal present, lane 3 is the control circular DNA with no metal present, lane 4 is a 1:5 metal complex/base pair mixture of the plasmid with the metal complex incubated at 37° C. (4 h), and lane 5 is a 1:5 metal complex/base pair mixture of the plasmid with the metal complex photolyzed at 520±5 nm for 4 h. All gels used 0.8% agarose, 90 mM Tris, and 90 mM boric acid buffer (pH=8.2, ionic strength=0.0043 M calculated using the Henderson-Hasselbalch equation).
B, DNA Photocleavage of pBluescript using [{(tpy)RuCl(dpp)}2RhCl2](PF6)3:Lane 1 is the λ molecular weight standard, Lane 2 is a plasmid control, Lane 3 is a 1:5 metal complex/base pair mixture of the plasmid with the metal complex incubated at 37° C. for 20 minutes, Lane 4 is a 1:5 metal complex/base pair mixture of the plasmid with the metal complex photolyzed at >475 nm for 20 minutes.
pUC18 and pBluescript were used to probe pbotocleavage of DNA by gel electrophoresis.^14,26,41,42 pUC18 plasmid is 2686 bp (Bayou Biolabs). Irradiation used a 1000 W xenon arc lamp, a water IR filter, and a 475 nm cut off filter. […]

Series [3] concerns Vero cells. Nature of the series: Photoinduced inhibition of Vero cell replication. The format is cell-based. The procedure:
Photoinduced inhibition of Vero cell replication by the supramolecular complex [{(bpy)2Ru(dpp)}2RhCl2](PF6)5 was investigated. All experiments were carried out with 0.5 mg/mL of [{(bpy)2Ru(dpp)}2RhCl2](PF6)5 in MEM media, and the results are shown in FIG. 11A. This cell line normally replicates once each 24 hours.
The concentration dependence of photoinduced inhibition of cell replication by the supramolecular complex [{(bpy)2Ru(dpp)}2RhCl2]Cl5 is shown in FIG. 11B. […] This is likely due to photoinduced death of the irradiated cells.

As for `F[P-](F)(F)(F)(F)F.F[P-](F)(F)(F)(F)F.F[P-](F)(F)(F)(F)F.F[P-](F)(F)(F)(F)F.F[P-](F)(F)(F)(F)F.[Cl-].[Cl-].[Os+2].[Os+2].[Rh+3].c1ccc(-c2ccccn2)nc1.c1ccc(-c2ccccn2)nc1.c1ccc(-c2ccccn2)nc1.c1ccc(-c2ccccn2)nc1.c1ccc(-c2nccnc2-c2ccccn2)nc1.c1ccc(-c2nccnc2-c2ccccn2)nc1` [[{(bpy)2Os(dpp)}2RhCl2](PF6)5, [(2,2′-bipyridine)2Os(2,3-bis(2-pyridyl)pyrazine)RhCl2(2,3-bis(2-pyridyl)pyrazine)Os(2,2′-bipyridine)2](PF6)5], in series [1] (photolyzed at >475 nm for 20 minutes, 1:5 metal complex/base pair (FIG. 12A)), the DNA photocleavage entry is “efficiently cleave DNA”.
Take `F[P-](F)(F)(F)(F)F.F[P-](F)(F)(F)(F)F.F[P-](F)(F)(F)(F)F.F[P-](F)(F)(F)(F)F.F[P-](F)(F)(F)(F)F.[Cl-].[Cl-].[Rh+3].[Ru+2].[Ru+2].c1ccc(-c2ccccn2)nc1.c1ccc(-c2ccccn2)nc1.c1ccc(-c2ccccn2)nc1.c1ccc(-c2ccccn2)nc1.c1ccc(-c2nccnc2-c2ccccn2)nc1.c1ccc(-c2nccnc2-c2ccccn2)nc1` [[{(bpy)2Ru(dpp)}2RhCl2](PF6)5]: the DNA photocleavage result in series [2] (presence of molecular oxygen) was “also observed in the presence of molecular oxygen”; in series [1] (irradiated λ≧475 nm, presence of molecular oxygen) it was “also observed in the presence of molecular oxygen”. For the same molecule, in series [1] (incubated at 37° C. for 2 h, 1:5 metal complex/base pair), the “DNA cleavage without irradiation” value is listed as “the plasmid DNA is not cleaved”. Also, the “DNA photocleavage (supercoiled to nicked form)” value in series [1] (irradiated λ≧475 nm for 10 min, absence of molecular oxygen, 1:5 metal complex/base pair, 3.5 μM complex, phosphate buffer pH 7) is listed as “conversion of the supercoiled DNA to the nicked form is observed”. The “Toxicity to cells in the dark” value in series [3] (Vero cells, no illumination, 0.5 mg/mL) is on record as “not toxic to cells in the dark”. Moreover, the “Vero cell replication, complex alone” value in series [3] (incubated in the dark, without illumination, MEM media (FIG. 11A)) was “did not impact replication”. Besides, in series [3] (photolysis at λ>475 nm after incubation with 0.5 mg/mL complex in MEM media (FIG. 11A)), the “Photoinduced inhibition of Vero cell replication” value is “greatly inhibits cell replication”.
Take `F[P-](F)(F)(F)(F)F.F[P-](F)(F)(F)(F)F.F[P-](F)(F)(F)(F)F.[Cl-].[Cl-].[Cl-].[Cl-].[Rh+3].[Ru+2].[Ru+2].c1ccc(-c2cccc(-c3ccccn3)n2)nc1.c1ccc(-c2cccc(-c3ccccn3)n2)nc1.c1ccc(-c2nccnc2-c2ccccn2)nc1.c1ccc(-c2nccnc2-c2ccccn2)nc1` [[{(tpy)RuCl(dpp)}2RhCl2](PF6)3, [(2,2′:6′,2″-terpyridine) RuCl(2,3-bis(2-pyridyl)pyrazine)RhCl2(2,3-bis(2-pyridyl)pyrazine)RuCl(2,2′:6′,2″-terpyridine)](PF6)3]: the DNA photocleavage result in series [2] (photolyzed at >475 nm for 20 minutes, 1:5 metal complex/base pair (FIG. 12B)) is on record as “efficiently cleave DNA”.
As to “[(2,2′:6′,2″-terpyridine)RuCl(2,2′-bipyridimidine)RhCl2(2,2′-bipyridimidine)RuCl(2,2′:6′,2″-terpyridine)](PF6)3 [[{(tpy)RuCl(bpm)}2RhCl2](PF6)3]”, the DNA photocleavage entry in series [1] (photolyzed at >475 nm for 15 minutes, 1:5 metal complex/base pair (FIG. 12C)) was “efficiently cleave DNA”.
